Data on 13 molecules can be found in PubChem BioAssay (NCI).

Several values for one entry are separate records, joined by “and”; a condition that tells them apart may be missing. Equal entries are not always repeated.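 Method: 48-hour compound exposure of cells in 96-well plates, five concentrations, linear interpolation of endpoints. GI50: concentration for 50% inhibition of growth. TGI marks complete inhibition of growth.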

Usually TGI stands for the concentration giving total growth inhibition. Low readings indicate more potent growth arrest, high ones less potent growth arrest. The term GI50 denotes the concentration that inhibits growth by half.

Experiment in all cases: DTP human tumour cell line panel, 48 h
For assay [1], the system named is SN12C renal.
The subject of assay [2] is HL-60(TB) leukemia.
The test system of assay [3] is EKVX NSCLC.
For assay [4], the system named is CCRF-CEM leukemia.
Assay [5] deals with NCI/ADR-RES ovarian.
Assay [6] has as its system OVCAR-8 ovarian.
Assay [7] relates to A549 NSCLC.
In assay [8] the test system is RPMI-8226 leukemia.
In assay [9] the test system is SF-539 CNS.
Assay [10] concerns SNB-75 CNS.

On to `CN1N=C(c2ccncc2)OC1c1ccccc1F` (stereo not drawn), for which the TGI in assay [1], in assay [2], in [3], in [4], in assay [5] and in assay [6] was above 100 µM in each case. The TGI in assay [7], in [8] and in assay [9] was above 100 µM in each case.

With `C[C@H]1[C@H](C)CC[C@]2(C(=O)OC3OC(CO)C(O)C(O)C3O)CC[C@]3(C)C(=CC[C@@H]4[C@@]5(C)C[C@H]6OC(=O)c7cc(O)c(O)c(O)c7-c7c(cc(O)c(O)c7O)C(=O)O[C@@H]6C(CO)(CO)[C@@H]5CC[C@]43C)[C@H]12` (stereo partly drawn), the TGI in assay [1] is above 100 µM; in assay [2], above 100 µM; in [3] it was above 100 µM; in [4] it was above 92.3 µM; in assay [5] it was above 100 µM; in assay [6], above 100 µM. Moreover, the TGI in assay [10], in assay [7], in [8] and in assay [9] was above 100 µM throughout.

`Cc1cc(NS(=O)(=O)c2ccc(NC(NC(=O)C(C(F)(F)F)C(F)(F)F)(C(F)(F)F)C(F)(F)F)cc2)no1`: the TGI in [1], in [2], in assay [3], in assay [4], in assay [5] and in assay [6] was above 100 µM in each case. Further, the TGI in assay [10], in [7], in assay [8] and in assay [9] was above 100 µM each time.

`CN1CCN(C2=C(Cl)C3(OCCS3)C(F)(F)C2(F)F)CC1` (stereo not drawn): the TGI in assay [1], in assay [2], in [3], in assay [4], in assay [5] and in [6] was above 100 µM throughout. Also, the TGI in assay [10], in assay [7], in assay [8] and in assay [9] was above 100 µM throughout.

Consider `O=c1c2ccccc2sc2ccccc12`, for which the TGI in assay [1], in assay [2], in assay [3], in assay [4], in assay [5] and in assay [6] was above 100 µM in each case. The TGI in assay [10], in assay [7], in [8] and in assay [9] was above 100 µM each time.

With `CCN(CC)CCO/N=C1\CC[C@H]2[C@@H]3CCc4cc(OC)ccc4[C@H]3CC[C@]12C`, the TGI came to 8.12 µM in assay [1]; 3.12 µM in assay [2]; 9.76 µM in [3]; 4.86 µM in assay [4]; 23.9 µM in assay [5]; 7.95 µM in [6]. The TGI in assay [10] came to 9.25 µM; in assay [7], 6.96 µM; in assay [8], 4.26 µM; in assay [9] it was 3.92 µM.

`O=S1(=O)c2cnccc2NC(=NCc2ccccc2)N1c1ccccc1`: the TGI in assay [1], in [2], in assay [3], in assay [4], in assay [5] and in assay [6] was above 100 µM each time. Besides, the TGI in assay [10] was above 100 µM; in assay [7], above 100 µM; in assay [8], 58.8 µM; in assay [9], above 100 µM.

On to `CC1=NNC(=O)C1C1CC(c2c[nH]c3ccccc23)=NN=C1Cl` (stereo not drawn), for which the TGI is above 100 µM in [1]; 53.6 µM in assay [2]; above 100 µM in assay [3]; 69.2 µM in [4]; above 100 µM in [5]; above 100 µM in [6]. In addition, the TGI was above 100 µM in [10], above 100 µM in assay [7], 81.6 µM in assay [8] and above 100 µM in assay [9].

Regarding `CN(C)c1cccc2c1C(=O)C=CC21c2ccc(N(C)C)c3c(N(C)C)ccc(c23)C(c2ccccc2)C1c1ccccc1` (stereo not drawn), the TGI in assay [1] was 32.7 µM; in assay [2], 22.6 µM; in [3], 54.8 µM; in [4], 37.7 µM; in [5] it was 58.9 µM; in [6] it was 27.3 µM. Also, the TGI in assay [10] turned out to be 30.9 µM; in [7] it was 71.7 µM; in [8] it was 49.3 µM; in assay [9] it was 26 µM.

As to `CCOC(=O)C1CCC(=O)N1C(=O)c1ccccc1Cl` (stereo not drawn), the TGI in [1], in assay [2], in [3], in [4], in assay [5] and in assay [6] was above 100 µM in each case. For the same molecule, the TGI in assay [10], in assay [7], in [8] and in assay [9] was above 100 µM in each case.

`C=CCN1C(=O)/C(=C/c2ccc(C)cc2)N=C1SC1OC(COC(C)=O)C(OC(C)=O)C(OC(C)=O)C1OC(C)=O` (stereo not drawn): the TGI in assay [1], in [2], in assay [3], in assay [5], in assay [6] and in [10] was above 100 µM in each case. The TGI in assay [7], in assay [8] and in [9] was above 100 µM in each case. Further, the GI50 was 12.4 µM and 2.25 µM in assay [4]; > 100 µM and 32.5 µM in [5]; 5.59 µM and 31.5 µM in [6]; 3.7 µM and 20.2 µM in assay [10]; > 100 µM and 20.2 µM in assay [8]; 16.7 µM and 41.6 µM in [9].

Consider `O=C1C2=Nc3ccccc3C(O)(C(=O)O)N2c2ccccc21` (stereo not drawn), for which the TGI in assay [1] was above 100 µM; in [2], 77 µM; in assay [3], above 100 µM; in [4], 94.9 µM; in [5], above 100 µM; in assay [6], above 100 µM. Further, the TGI in assay [10] was 74.2 µM; in [7] it was 24.6 µM; in assay [8], above 100 µM; in assay [9], 48.4 µM.

Regarding `Cc1c(-c2ccccc2)[nH]n(C2=NCCN2)c1=O`, the TGI in assay [2], in [3], in [4], in assay [5], in [6] and in [10] was above 100 µM each time. Further, the TGI in [7], in assay [8] and in [9] was above 100 µM in each case.
